Measured values as given in PubChem BioAssay AID1918991 (Molecular Pharmacology Branch, DTP, NCI, 2023).

System: 186277-243-T-J2-PDC complex spheroid growth
Assay: Anticancer human tumor 186277-243-T-J2-PDC patient-derived colon adenocarcinoma cell line growth inhibition [AhR]
Details: for IC50: curve of first compound; for viability, T/C: stronger effect = lower value
Outline: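 Agents were dosed in half-log steps down from roughly clinical Cmax, or from 10 microM where Cmax was unknown, alone and with AhR antagonists. Read-out: percent test/control growth of tumor spheroids containing HUVEC and MSC stromal cells.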

[1] = second compound 0.1 µM, first compound 0.0316 µM
[2] = second compound 0.1 µM, first compound 0.1 µM
[3] = second compound 0.1 µM, first compound 0.316 µM
[4] = second compound 0.1 µM, first compound 1 µM
[5] = second compound 0.1 µM, first compound 3.16 µM
[6] = second compound 0.1 µM, first compound 10 µM
[7] = second compound 0.316 µM, first compound 0.0316 µM
[8] = second compound 0.316 µM, first compound 0.1 µM
[9] = second compound 0.316 µM, first compound 0.316 µM
[10] = second compound 0.316 µM, first compound 1 µM
[11] = second compound 0.316 µM, first compound 3.16 µM
[12] = second compound 0.316 µM, first compound 10 µM
[13] = second compound 1 µM, first compound 0.0316 µM
[14] = second compound 1 µM, first compound 0.1 µM
[15] = second compound 1 µM, first compound 0.316 µM
[16] = second compound 1 µM, first compound 1 µM
[17] = second compound 1 µM, first compound 3.16 µM
[18] = second compound 1 µM, first compound 10 µM
[19] = second compound 3.16 µM, first compound 0.0316 µM
[20] = second compound 3.16 µM, first compound 0.1 µM
[21] = second compound 3.16 µM, first compound 0.316 µM
[22] = second compound 3.16 µM, first compound 1 µM
[23] = second compound 3.16 µM, first compound 3.16 µM
[24] = second compound 3.16 µM, first compound 10 µM
[25] = second compound 10 µM, first compound 0.0316 µM
[26] = second compound 10 µM, first compound 0.1 µM
[27] = second compound 10 µM, first compound 0.316 µM
[28] = second compound 10 µM, first compound 1 µM
[29] = second compound 10 µM, first compound 3.16 µM
[30] = second compound 10 µM, first compound 10 µM
[31] = second compound 0.1 µM, first compound 0.00949 µM
[32] = second compound 0.1 µM, first compound 0.03 µM
[33] = second compound 0.1 µM, first compound 0.0949 µM
[34] = second compound 0.1 µM, first compound 0.3 µM
[35] = second compound 0.316 µM, first compound 0.00949 µM
[36] = second compound 0.316 µM, first compound 0.03 µM
[37] = second compound 0.316 µM, first compound 0.0949 µM
[38] = second compound 0.316 µM, first compound 0.3 µM
[39] = second compound 1 µM, first compound 0.00949 µM
[40] = second compound 1 µM, first compound 0.03 µM
[41] = second compound 1 µM, first compound 0.0949 µM
[42] = second compound 1 µM, first compound 0.3 µM
[43] = second compound 3.16 µM, first compound 0.00949 µM
[44] = second compound 3.16 µM, first compound 0.03 µM
[45] = second compound 3.16 µM, first compound 0.0949 µM
[46] = second compound 3.16 µM, first compound 0.3 µM
[47] = second compound 10 µM, first compound 0.00949 µM
[48] = second compound 10 µM, first compound 0.03 µM
[49] = second compound 10 µM, first compound 0.0949 µM
[50] = second compound 10 µM, first compound 0.3 µM
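Further: spheroids exposed to compounds for seven days before the viability read.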
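Wherever viability, T/C is given: luminescent signal used as a stand-in for viable cell amount; 100% = DMSO vehicle control wells.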

Work on `CC1(C)CCC(CN2CCN(c3ccc(C(=O)NS(=O)(=O)c4ccc(NCC5CCOCC5)c([N+](=O)[O-])c4)c(Oc4cnc5[nH]ccc5c4)c3)CC2)=C(c2ccc(Cl)cc2)C1` + Cc1ccccc1N=Nc1ccc(NC(=O)c2ccnn2C)c(C)c1 yielded an IC50 (second compound 0.1 µM) of 7.46 µM, an IC50 (second compound 0.316 µM) of 6.9 µM and an IC50 (second compound 1 µM) of 7.32 µM. The IC50 (second compound 3.16 µM) was 6.94 µM, the IC50 (second compound 10 µM) was 6.27 µM and the viability, T/C [1] was 95.1%. The viability, T/C [2] was 98.9%, the viability, T/C [3] was 115% and the viability, T/C [4] was 110%. It also gave a viability, T/C [5] of 103%, a viability, T/C [6] of 31.8% and a viability, T/C [7] of 94.1%. The viability, T/C [8] was 108%, the viability, T/C [9] was 96.4% and the viability, T/C [10] was 100%. The viability, T/C [11] was 87.9%, the viability, T/C [12] was 31.7% and the viability, T/C [13] was 103%. For the same molecule, the viability, T/C [14] was 99.3%, the viability, T/C [15] was 110% and the viability, T/C [16] was 98.2%. For the same molecule, the viability, T/C [17] was 110%, the viability, T/C [18] was 29.8% and the viability, T/C [19] was 91.3%. For the same molecule, the viability, T/C [20] was 91.8%, the viability, T/C [21] was 100% and the viability, T/C [22] was 94.3%. The viability, T/C [23] was 91.2%, the viability, T/C [24] was 30.9% and the viability, T/C [25] was 88.7%. For the same molecule, the viability, T/C [26] was 82.5%, the viability, T/C [27] was 95.3% and the viability, T/C [28] was 92.5%. The viability, T/C [29] was 85.7% and the viability, T/C [30] was 25.5%.
`CC1COCCN1c1cc(C2(S(C)(=N)=O)CC2)nc(-c2ccnc3[nH]ccc23)n1` (stereo not given) + Cc1ccccc1N=Nc1ccc(NC(=O)c2ccnn2C)c(C)c1 gave an IC50 (second compound 0.1 µM) of 2.34 µM, an IC50 (second compound 0.316 µM) of 2.35 µM and an IC50 (second compound 1 µM) of 2.18 µM. For the same molecule, the IC50 (second compound 3.16 µM) was 2.2 µM, the IC50 (second compound 10 µM) was 2.17 µM and the viability, T/C [1] was 105%. The viability, T/C [2] was 97.8%, the viability, T/C [3] was 81.3% and the viability, T/C [4] was 90.8%. It also gave a viability, T/C [5] of 35.8%, a viability, T/C [6] of 11.8% and a viability, T/C [7] of 99.1%. For the same molecule, the viability, T/C [8] was 90.2%, the viability, T/C [9] was 98.5% and the viability, T/C [10] was 97%. It also gave a viability, T/C [11] of 33.9%, a viability, T/C [12] of 11.3% and a viability, T/C [13] of 89.4%. The viability, T/C [14] was 105%, the viability, T/C [15] was 81.8% and the viability, T/C [16] was 84.2%. The viability, T/C [17] was 34%, the viability, T/C [18] was 9.66% and the viability, T/C [19] was 91.2%. It also gave a viability, T/C [20] of 83.8%, a viability, T/C [21] of 87.6% and a viability, T/C [22] of 95.1%. The viability, T/C [23] was 31.8%, the viability, T/C [24] was 9.83% and the viability, T/C [25] was 82.1%. It also gave a viability, T/C [26] of 87.2%, a viability, T/C [27] of 87.5% and a viability, T/C [28] of 79.7%. It also gave a viability, T/C [29] of 35.6% and a viability, T/C [30] of 10.9%.
With `CCN(c1cc(-c2ccc(CN3CCOCC3)cc2)cc(C(=O)NCc2c(C)cc(C)[nH]c2=O)c1C)C1CCOCC1` + Cc1ccccc1N=Nc1ccc(NC(=O)c2ccnn2C)c(C)c1 the IC50 (second compound 0.1 µM) was > 3 µM, the IC50 (second compound 0.316 µM) was > 3 µM and the IC50 (second compound 1 µM) was > 3 µM. The IC50 (second compound 3.16 µM) was > 3 µM, the IC50 (second compound 10 µM) was > 3 µM and the viability, T/C [31] was 105%. For the same molecule, the viability, T/C [32] was 118%, the viability, T/C [33] was 112% and the viability, T/C [34] was 108%. The viability, T/C (second compound 0.1 µM, first compound 0.949 µM) was 102%, the viability, T/C (second compound 0.1 µM, first compound 3 µM) was 102% and the viability, T/C [35] was 95.7%. The viability, T/C [36] was 109%, the viability, T/C [37] was 100% and the viability, T/C [38] was 105%. It also gave a viability, T/C (second compound 0.316 µM, first compound 0.949 µM) of 103%, a viability, T/C (second compound 0.316 µM, first compound 3 µM) of 112% and a viability, T/C [39] of 104%. The viability, T/C [40] was 102%, the viability, T/C [41] was 102% and the viability, T/C [42] was 94.5%. For the same molecule, the viability, T/C (second compound 1 µM, first compound 0.949 µM) was 100%, the viability, T/C (second compound 1 µM, first compound 3 µM) was 112% and the viability, T/C [43] was 91%. The viability, T/C [44] was 94.7%, the viability, T/C [45] was 99.5% and the viability, T/C [46] was 94%. It also gave a viability, T/C (second compound 3.16 µM, first compound 0.949 µM) of 107%, a viability, T/C (second compound 3.16 µM, first compound 3 µM) of 104% and a viability, T/C [47] of 89.9%. For the same molecule, the viability, T/C [48] was 91.2%, the viability, T/C [49] was 86.3% and the viability, T/C [50] was 79.8%. The viability, T/C (second compound 10 µM, first compound 0.949 µM) was 84.2% and the viability, T/C (second compound 10 µM, first compound 3 µM) was 93.2%.
`Nc1ncn(C2CC(O)C(CO)S2)c(=O)n1` (stereo not given) + Cc1ccccc1N=Nc1ccc(NC(=O)c2ccnn2C)c(C)c1 was tested, and the IC50 (second compound 0.1 µM) was > 0.3 µM, the IC50 (second compound 0.316 µM) was > 0.3 µM and the IC50 (second compound 1 µM) was > 0.3 µM. The IC50 (second compound 3.16 µM) was > 0.3 µM, the IC50 (second compound 10 µM) was > 0.3 µM and the viability, T/C (second compound 0.1 µM, first compound 0.000949 µM) was 97.2%. It also gave a viability, T/C (second compound 0.1 µM, first compound 0.003 µM) of 123%, a viability, T/C [31] of 119% and a viability, T/C [32] of 104%. It also gave a viability, T/C [33] of 132%, a viability, T/C [34] of 111% and a viability, T/C (second compound 0.316 µM, first compound 0.000949 µM) of 106%. It also gave a viability, T/C (second compound 0.316 µM, first compound 0.003 µM) of 106%, a viability, T/C [35] of 105% and a viability, T/C [36] of 109%. The viability, T/C [37] was 109%, the viability, T/C [38] was 116% and the viability, T/C (second compound 1 µM, first compound 0.000949 µM) was 103%. For the same molecule, the viability, T/C (second compound 1 µM, first compound 0.003 µM) was 109%, the viability, T/C [39] was 100% and the viability, T/C [40] was 127%. The viability, T/C [41] was 127%, the viability, T/C [42] was 108% and the viability, T/C (second compound 3.16 µM, first compound 0.000949 µM) was 108%. The viability, T/C (second compound 3.16 µM, first compound 0.003 µM) was 104%, the viability, T/C [43] was 107% and the viability, T/C [44] was 106%. It also gave a viability, T/C [45] of 117%, a viability, T/C [46] of 120% and a viability, T/C (second compound 10 µM, first compound 0.000949 µM) of 96.5%. For the same molecule, the viability, T/C (second compound 10 µM, first compound 0.003 µM) was 102%, the viability, T/C [47] was 102% and the viability, T/C [48] was 99.5%. For the same molecule, the viability, T/C [49] was 93% and the viability, T/C [50] was 90.1%.
